Read-outs that look alike come from different tables or passages of the source. No end group written: not given here.

The conditions of data set [1]: rat, in vivo, 2 mg/kg.
A short description of a further data set: in vivo. As to conditions: both, Wistar, rat, 2 mg/kg.
Another data set concerns PRV. It counts as cell-based, pseudorabies virus. As to conditions: TCID50 based, R = A2/A1 × 100%; 50 μg/ml peptide (method says 50 μM, 1 h incubation); Vero and PK-15 cells; mean.
The subject of a further data set is PEDV. It is filed as cell-based, porcine epidemic diarrhea virus.

As for FFHHIFRGIVHVGKTIHRLVTG [Piscidin 1], in data set [1], the “AUC0−∞” value amounted to 78.40 ± 8.64 µg·h/g, the “CLb (body clearance)” value amounted to 0.433 ± 0.13 mL/min/kg, the highest concentration (Cmax) (usually the peak of the concentration-time curve) came out at 1.67 ± 0.19 µg/g and the “Ke (elimination rate constant)” value worked out at 0.034 ± 0.06 h⁻¹. In data set [1], the MRT (as a rule, a mean duration of stay, worked out from the concentration-time curve) is reported as 36.45 ± 2.45 h; the “Ratio of AUC0−∞, ileum content / serum” value is given as 4.14; the “Ratio of CLb, ileum content / serum” value amounted to 0.273; the “Ratio of Cmax, ileum content / serum” value came to 0.71. Further, in data set [1], the “Ratio of Ke, ileum content / serum” value was 1.17; the “Ratio of MRT, ileum content / serum” value came out at 1.21; the “Ratio of T1/2, ileum content / serum” value turned out to be 0.858; the “Ratio of Tmax, ileum content / serum” value is 24.38. Besides, in data set [1], the “T1/2 (elimination half-life)” value is 20.16 ± 1.76 h and the Tmax (as a rule, the time from dosing to the highest level) was determined as 8.12 ± 1.02 h. Moreover, in the data set “in vivo” (im), the AUC(0-inf) (usually total exposure, with the tail of the curve extrapolated) amounted to 19000 ± 1370 ng·h/mL; the concentration peaked (Cmax) at 2370 ± 160 ng/mL; the mean residence time (MRT) was 30.1 ± 2.46 h; the Tmax amounted to 0.333 ± 0.151 h. In addition, in “in vivo” (im), the bioavailability (in general, dose-corrected exposure relative to a reference, in per cent) came to 73.2% and the half-life (commonly the time in which the quantity being followed falls by half) is 23.5 ± 2.43 h. In “in vivo” (iv), the area under the curve AUC(0-inf) is 25900 ± 3210 ng·h/mL, the MRT was determined as 22.8 ± 2.43 h, the clearance (commonly the volume of plasma or blood freed of the substance per unit of time) is 1.12 mL/min/kg and the half-life is 17 ± 1.43 h. For the same sequence, in “in vivo” (po), the AUC(0-inf) stood at 9630 ± 870 ng·h/mL, the Cmax worked out at 730 ± 80 ng/mL, the mean residence time MRT amounted to 26.8 ± 2.89 h and the Tmax worked out at 0.5 ± 0.23 h. In the data set “in vivo” (po), this sequence gave a bioavailability of 37.2% and a half-life of 19.5 ± 1.67 h.
Turning to “FKCRRWQWRM KKLGAPSITC VRRAF [lactoferricin]”, the “virus survived ratio of PRV” value with PRV is on record as 82%. The “virus survived ratio of PEDV” value in the data set with PEDV is reported as 93%.
